Several values for one entry are separate records, joined by “and”; a condition that tells them apart may be missing. Equal values may be shown once.
system: CD47; assay: FACS analysis of expression level of CD47 on tumor cell surface; type: cell-based, Human; conditions: Toledo cells
Protocol: (§1) For FACS analysis, on the day of analysis (day 1), Toledo cells were seeded into 96 well plate and cultured at a density of 0.2×10^6 cells/well. Then the cells were treated with the selected small molecule therapeutic agents for 12 hours.
(§2) On day 2, cells were harvested, washed twice and then re-suspended in 100 uL FACS buffer subject to FACS analysis. For detection of the expression of calreticulin and CD47, cells were incubated with anti-calreticulin antibody and commercially available anti-CD47 antibody (BD Biosciences, Catalog number: 561249) in dark at 4° C. for 30 mins.
(§3) Then, the cells were subject to FACS analysis. Data was acquired and analyzed.

SMILES	effect on CD47 expression level
COc1c(OCCCN2CCOCC2)ccc2c1N=C(NC(=O)c1cnc(N)nc1)N1CCN=C21 [Copanlisib]	only slightly inhibited

same assay, conditions: Toledo cells, 12 hours, 0.008 uM

SMILES	Mean Fluorescence Intensity (MFI) CD47
C=CC(=O)N1CCC[C@@H](n2nc(-c3ccc(Oc4ccccc4)cc3)c3c(N)ncnc32)C1 [Ibrutinib]	8453
COc1c(OCCCN2CCOCC2)ccc2c1N=C(NC(=O)c1cnc(N)nc1)N1CCN=C21 [Copanlisib]	8024

same assay, conditions: Toledo cells, 12 hours, 0.04 uM

SMILES	Mean Fluorescence Intensity (MFI) CD47
C=CC(=O)N1CCC[C@@H](n2nc(-c3ccc(Oc4ccccc4)cc3)c3c(N)ncnc32)C1 [Ibrutinib]	8490
COc1c(OCCCN2CCOCC2)ccc2c1N=C(NC(=O)c1cnc(N)nc1)N1CCN=C21 [Copanlisib]	8243

same assay, conditions: Toledo cells, 12 hours, 0.2 uM

SMILES	Mean Fluorescence Intensity (MFI) CD47
C=CC(=O)N1CCC[C@@H](n2nc(-c3ccc(Oc4ccccc4)cc3)c3c(N)ncnc32)C1 [Ibrutinib]	8415
COc1c(OCCCN2CCOCC2)ccc2c1N=C(NC(=O)c1cnc(N)nc1)N1CCN=C21 [Copanlisib]	7844

same assay, conditions: Toledo cells, 12 hours, 1 uM

SMILES	Mean Fluorescence Intensity (MFI) CD47
C=CC(=O)N1CCC[C@@H](n2nc(-c3ccc(Oc4ccccc4)cc3)c3c(N)ncnc32)C1 [Ibrutinib]	8345
COc1c(OCCCN2CCOCC2)ccc2c1N=C(NC(=O)c1cnc(N)nc1)N1CCN=C21 [Copanlisib]	7097

same assay, conditions: Toledo cells, 12 hours, 5 uM

SMILES	Mean Fluorescence Intensity (MFI) CD47
C=CC(=O)N1CCC[C@@H](n2nc(-c3ccc(Oc4ccccc4)cc3)c3c(N)ncnc32)C1 [Ibrutinib]	8345
COc1c(OCCCN2CCOCC2)ccc2c1N=C(NC(=O)c1cnc(N)nc1)N1CCN=C21 [Copanlisib]	6803

system: Calreticulin; assay: FACS analysis of expression level of calreticulin on tumor cell surface; type: cell-based, Human; conditions: Toledo cells
Protocol: as §1, §2, §3

SMILES	effect on expression level of Calreticulin
COc1c(OCCCN2CCOCC2)ccc2c1N=C(NC(=O)c1cnc(N)nc1)N1CCN=C21 [Copanlisib]	only slightly increased

same assay, conditions: Toledo cells, 12 hours, 0.008 uM

SMILES	Mean Fluorescence Intensity (MFI) Calreticulin
C=CC(=O)N1CCC[C@@H](n2nc(-c3ccc(Oc4ccccc4)cc3)c3c(N)ncnc32)C1 [Ibrutinib]	70.6
COc1c(OCCCN2CCOCC2)ccc2c1N=C(NC(=O)c1cnc(N)nc1)N1CCN=C21 [Copanlisib]	69.8

same assay, conditions: Toledo cells, 12 hours, 0.04 uM

SMILES	Mean Fluorescence Intensity (MFI) Calreticulin
C=CC(=O)N1CCC[C@@H](n2nc(-c3ccc(Oc4ccccc4)cc3)c3c(N)ncnc32)C1 [Ibrutinib]	73.1
COc1c(OCCCN2CCOCC2)ccc2c1N=C(NC(=O)c1cnc(N)nc1)N1CCN=C21 [Copanlisib]	77

same assay, conditions: Toledo cells, 12 hours, 0.2 uM

SMILES	Mean Fluorescence Intensity (MFI) Calreticulin
C=CC(=O)N1CCC[C@@H](n2nc(-c3ccc(Oc4ccccc4)cc3)c3c(N)ncnc32)C1 [Ibrutinib]	74.5
COc1c(OCCCN2CCOCC2)ccc2c1N=C(NC(=O)c1cnc(N)nc1)N1CCN=C21 [Copanlisib]	79.4

same assay, conditions: Toledo cells, 12 hours, 1 uM

SMILES	Mean Fluorescence Intensity (MFI) Calreticulin
C=CC(=O)N1CCC[C@@H](n2nc(-c3ccc(Oc4ccccc4)cc3)c3c(N)ncnc32)C1 [Ibrutinib]	69.9
COc1c(OCCCN2CCOCC2)ccc2c1N=C(NC(=O)c1cnc(N)nc1)N1CCN=C21 [Copanlisib]	106

same assay, conditions: Toledo cells, 12 hours, 5 uM

SMILES	Mean Fluorescence Intensity (MFI) Calreticulin
C=CC(=O)N1CCC[C@@H](n2nc(-c3ccc(Oc4ccccc4)cc3)c3c(N)ncnc32)C1 [Ibrutinib]	79
COc1c(OCCCN2CCOCC2)ccc2c1N=C(NC(=O)c1cnc(N)nc1)N1CCN=C21 [Copanlisib]	142

system: macrophages; assay: Macrophage Viability Assay (CellTiter-Glo); type: cell-based, Human; conditions: Cpd 0.002 uM, 16 hours, three replicate lines
Protocol: Then, the monocytes isolated by MACS were subsequently cultured in fresh complete medium supplemented with recombinant human granulocyte-macrophage colony-stimulating factor GM-CSF (50 ng/ml) and human recombinant IL-4 (35 ng/ml) to activate differentiated macrophages. After 6 days of culture (on day 7), cells were harvested, pooled together and counted for next use.
The cells from Example 2 were plated into a 96-well flat bottom plate at a density of 0.05×10^6 cells/well. After 2 hours of incubation, the macrophages were well attached to the plate. Then selected small molecule therapeutic agents were added to the well and cocultured for 16 hours. On day 8, macrophage viability was assessed by CellTiter-Glo® Luminescent Cell Viability Assay, according to the manufacture's instruction.

SMILES	Macrophage viability (CellTiter-Glo Luminescent Cell Viability Assay)
C=CC(=O)N1CCC[C@@H](n2nc(-c3ccc(Oc4ccccc4)cc3)c3c(N)ncnc32)C1 [Ibrutinib]	4948 and 4988 and 5520
COc1c(OCCCN2CCOCC2)ccc2c1N=C(NC(=O)c1cnc(N)nc1)N1CCN=C21 [Copanlisib]	5856 and 5928 and 6000

same assay, conditions: Cpd 0.008 uM, 16 hours, three replicate lines

SMILES	Macrophage viability (CellTiter-Glo Luminescent Cell Viability Assay)
C=CC(=O)N1CCC[C@@H](n2nc(-c3ccc(Oc4ccccc4)cc3)c3c(N)ncnc32)C1 [Ibrutinib]	4880 and 5316 and 5780
COc1c(OCCCN2CCOCC2)ccc2c1N=C(NC(=O)c1cnc(N)nc1)N1CCN=C21 [Copanlisib]	5272 and 4772 and 5388

same assay, conditions: Cpd 0.04 uM, 16 hours, three replicate lines

SMILES	Macrophage viability (CellTiter-Glo Luminescent Cell Viability Assay)
C=CC(=O)N1CCC[C@@H](n2nc(-c3ccc(Oc4ccccc4)cc3)c3c(N)ncnc32)C1 [Ibrutinib]	4688 and 5488 and 5780
COc1c(OCCCN2CCOCC2)ccc2c1N=C(NC(=O)c1cnc(N)nc1)N1CCN=C21 [Copanlisib]	4856 and 5120 and 4872

same assay, conditions: Cpd 0.2 uM, 16 hours, three replicate lines

SMILES	Macrophage viability (CellTiter-Glo Luminescent Cell Viability Assay)
C=CC(=O)N1CCC[C@@H](n2nc(-c3ccc(Oc4ccccc4)cc3)c3c(N)ncnc32)C1 [Ibrutinib]	4932 and 5736 and 6152
COc1c(OCCCN2CCOCC2)ccc2c1N=C(NC(=O)c1cnc(N)nc1)N1CCN=C21 [Copanlisib]	4572 (2×) and 4928

same assay, conditions: Cpd 1 uM, 16 hours, three replicate lines

SMILES	Macrophage viability (CellTiter-Glo Luminescent Cell Viability Assay)
C=CC(=O)N1CCC[C@@H](n2nc(-c3ccc(Oc4ccccc4)cc3)c3c(N)ncnc32)C1 [Ibrutinib]	5056 and 5624 and 6224
COc1c(OCCCN2CCOCC2)ccc2c1N=C(NC(=O)c1cnc(N)nc1)N1CCN=C21 [Copanlisib]	4156 and 4492 and 4368

same assay, conditions: Cpd 5 uM, 16 hours, three replicate lines

SMILES	Macrophage viability (CellTiter-Glo Luminescent Cell Viability Assay)
C=CC(=O)N1CCC[C@@H](n2nc(-c3ccc(Oc4ccccc4)cc3)c3c(N)ncnc32)C1 [Ibrutinib]	4864 and 5828 and 6004
COc1c(OCCCN2CCOCC2)ccc2c1N=C(NC(=O)c1cnc(N)nc1)N1CCN=C21 [Copanlisib]	3780 and 4352 and 4196

same assay, conditions: Cpd 25 uM, 16 hours, three replicate lines

SMILES	Macrophage viability (CellTiter-Glo Luminescent Cell Viability Assay)
C=CC(=O)N1CCC[C@@H](n2nc(-c3ccc(Oc4ccccc4)cc3)c3c(N)ncnc32)C1 [Ibrutinib]	4680 and 5100 and 5572
COc1c(OCCCN2CCOCC2)ccc2c1N=C(NC(=O)c1cnc(N)nc1)N1CCN=C21 [Copanlisib]	4108 and 4176 and 4248

same assay, conditions: Cpd 50 uM, 16 hours, three replicate lines

SMILES	Macrophage viability (CellTiter-Glo Luminescent Cell Viability Assay)
C=CC(=O)N1CCC[C@@H](n2nc(-c3ccc(Oc4ccccc4)cc3)c3c(N)ncnc32)C1 [Ibrutinib]	3732 and 4296 and 4508
COc1c(OCCCN2CCOCC2)ccc2c1N=C(NC(=O)c1cnc(N)nc1)N1CCN=C21 [Copanlisib]	2748 and 3032 and 3028

same assay, conditions: dose as high as 50 μM

SMILES	toxicity to macrophages
C=CC(=O)N1CCC[C@@H](n2nc(-c3ccc(Oc4ccccc4)cc3)c3c(N)ncnc32)C1 [Ibrutinib]	showed toxicity

same assay, conditions: dose lower than 10 μM

SMILES	toxicity to macrophages
C=CC(=O)N1CCC[C@@H](n2nc(-c3ccc(Oc4ccccc4)cc3)c3c(N)ncnc32)C1 [Ibrutinib]	little toxic

same assay, conditions: dose of 0.1-50 μM

SMILES	toxicity to macrophages
COc1c(OCCCN2CCOCC2)ccc2c1N=C(NC(=O)c1cnc(N)nc1)N1CCN=C21 [Copanlisib]	obvious toxicity

Reference: patent publication US20230174649A1, “PHARMACEUTICAL COMPOSITIONS CONTAINING ANTI-CD47 ANTIBODIES” (I-MAB BIOPHARMA US LIMITED, priority 2020, published 2023)
